Laboratory results taken from US10414741B2, “Amorphous vortioxetine and salts thereof” (CADILA HEALTHCARE LIMITED, priority 2013, dated 2019).

Test: stability of amorphous form under normal stability conditions
Format: physicochemical
Description: Therefore, there is no physical change observed from amorphous form to crystalline form during the stability.
In further aspect, the stable amorphous vortioxetine free base or vortioxetine hydrobromide can be stored under nitrogen atmosphere and packed in a double polythene bag tied with a thread, keeping primary packing containing amorphous vortioxetine or vortioxetine hydrobromide inside a black color polyethylene bag containing oxygen busters and sealing it, placing above the double polyethylene bag inside a triple laminated bag optionally containing oxygen busters and sealing it, and placing the sealed triple laminated bag inside a closed high density polyethylene (HDPE) container and storing in controlled environment chamber at 25° C. and/or 40° C.

With Cc1ccc(Sc2ccccc2N2CCNCC2)c(C)c1 [amorphous vortioxetine free base, 1-{2-[(2,4-dimethylphenyl)sulfanyl]phenyl}piperazine] the “stability of amorphous form (physical change from amorphous form to crystalline form)” value was “stable under normal stability conditions”.
